# ChEMBL document CHEMBL1146856, “Novel, orally bioavailable gamma-aminoamide CC chemokine receptor 2 (CCR2) antagonists” (J Med Chem, 2006)
# pIC50: −log10 of the molar value.
# Experiments:
# [1] = target: T1, C-C chemokine receptor type 2 (Homo sapiens, UniProt P41597); experiment: Inhibition of [125I]MCP1 binding to CCR2 expressed in CHO cells; type: cell-based
# Target sequence in this assay (P41597 whole entry): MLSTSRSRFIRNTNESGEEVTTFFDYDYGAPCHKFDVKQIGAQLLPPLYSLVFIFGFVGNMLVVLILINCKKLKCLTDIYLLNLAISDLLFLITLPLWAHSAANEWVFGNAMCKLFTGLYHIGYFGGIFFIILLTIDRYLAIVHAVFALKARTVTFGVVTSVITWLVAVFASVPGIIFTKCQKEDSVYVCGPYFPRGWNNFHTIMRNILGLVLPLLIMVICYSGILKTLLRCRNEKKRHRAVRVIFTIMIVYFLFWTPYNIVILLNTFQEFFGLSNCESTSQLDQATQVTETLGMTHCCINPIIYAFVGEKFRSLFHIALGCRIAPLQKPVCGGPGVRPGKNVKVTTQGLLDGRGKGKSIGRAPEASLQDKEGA
# [2] = tested on: Monocyte; experiment: Inhibition of MCP1-stimulated chemotaxis of human monocyte at 1 uM; type: functional
# [3] = target: Substance-P receptor (Homo sapiens, UniProt P25103); experiment: Inhibition of NK1
# Substance-P receptor, sequence (P25103 whole entry): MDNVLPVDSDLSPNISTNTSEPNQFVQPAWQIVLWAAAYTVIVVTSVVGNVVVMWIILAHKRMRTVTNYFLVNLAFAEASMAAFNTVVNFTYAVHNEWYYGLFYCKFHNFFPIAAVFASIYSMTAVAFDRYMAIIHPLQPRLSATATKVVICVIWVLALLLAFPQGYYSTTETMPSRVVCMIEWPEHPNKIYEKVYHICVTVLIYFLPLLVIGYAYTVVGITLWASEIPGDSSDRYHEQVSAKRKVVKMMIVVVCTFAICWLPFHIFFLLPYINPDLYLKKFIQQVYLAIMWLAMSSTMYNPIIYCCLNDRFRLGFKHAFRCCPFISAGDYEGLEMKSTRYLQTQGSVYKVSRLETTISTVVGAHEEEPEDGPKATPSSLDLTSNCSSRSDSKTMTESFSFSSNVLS
# [4] = target: T2, C-C chemokine receptor type 5 (Homo sapiens, UniProt P51681); experiment: Inhibition of CCR5
# Target sequence in this assay (P51681 whole entry): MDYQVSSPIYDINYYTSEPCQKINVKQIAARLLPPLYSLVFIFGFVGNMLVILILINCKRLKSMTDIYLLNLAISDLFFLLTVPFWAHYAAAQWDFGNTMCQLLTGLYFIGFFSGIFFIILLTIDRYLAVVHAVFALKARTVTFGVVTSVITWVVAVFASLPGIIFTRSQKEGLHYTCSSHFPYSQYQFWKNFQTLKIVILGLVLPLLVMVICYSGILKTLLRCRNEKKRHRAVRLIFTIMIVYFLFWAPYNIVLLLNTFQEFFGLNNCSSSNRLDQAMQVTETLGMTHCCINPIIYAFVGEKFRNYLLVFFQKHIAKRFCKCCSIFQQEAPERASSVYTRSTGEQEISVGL
# [5] = target: T1, C-C chemokine receptor type 2; experiment: Inhibition of [125I]MCP1 binding to CCR2 expressed in CHO cells at 1 uM; type: cell-based
# Target sequence in this assay (P41597 whole entry, looked up): as the sequence (P41597 whole entry) above
# [6] = tested on: Monocyte; experiment: Inhibition of MCP1-stimulated chemotaxis of human monocyte; type: functional, cell-based
# [7] = Oral bioavailability in rat at 3 mg/kg; type: ADME, organism-based; settings: in vivo
# [8] = Plasma clearance in rat at 3 mg/kg; type: ADME, organism-based; design: dose 3 mg/kg
# [9] = Half life in rat at 3 mg/kg; type: ADME, organism-based; design: dose 3 mg/kg; settings: in vivo
# [10] = target: T2, C-C chemokine receptor type 5; experiment: Inhibition of CCR5 at 0.01 uM
# Target sequence in this assay (P51681 whole entry, looked up): as the sequence (P51681 whole entry) above
SMILES,pIC50 [1],inhibition [5],other results
O=C(NCc1cc(C(F)(F)F)cc(C(F)(F)F)c1)[C@@H](CCN1CCC(c2ccccc2)CC1)c1ccc(F)cc1,6.82,,inhibition at 1 µM [2]: 40%; pIC50 [3]: 7.62; pIC50 [4]: 7.14
CCC1CN(CC[C@H](C(=O)NCc2cc(C(F)(F)F)cc(C(F)(F)F)c2)c2ccc(F)cc2)CCC12C=Cc1ccccc12 (stereo not given in full),6.36,,
O=C(NCc1cc(C(F)(F)F)cc(C(F)(F)F)c1)[C@@H](CCCN1CCC(c2ccccc2)CC1)c1ccc(F)cc1,5.96,,
C=CCN1CCC(N(CC[C@H](C(=O)NCc2cc(C(F)(F)F)cc(C(F)(F)F)c2)c2ccc(F)cc2)C(=O)OCc2ccccc2)CC1,,14%,
O=C(NCc1cc(C(F)(F)F)cc(C(F)(F)F)c1)[C@@H](CCN1CCC2(C=Cc3ccccc32)CC1)c1ccc(F)cc1,7.10,,pIC50 [6]: 6.75; pIC50 [3]: 7.30; pIC50 [4]: 7.52; bioavailability [7]: 38%; clearance [8]: 6 mL/min/kg; half-life [9]: 8 h
CC(C[C@H](C(=O)NCc1cc(C(F)(F)F)cc(C(F)(F)F)c1)c1ccc(F)cc1)N1CCC(c2ccccc2)CC1 (stereo not given in full),5.82,,
O=C(NCc1cc(C(F)(F)F)cc(C(F)(F)F)c1)[C@@H](CCN1CCC(c2ccsc2)CC1)c1ccc(F)cc1,6.80,,
O=C(NCc1cc(C(F)(F)F)cc(C(F)(F)F)c1)[C@@H](CCN1CCCC(Cc2ccccc2)C1)c1ccc(F)cc1 (stereo not given in full),,43%,
O=C(NCc1cc(C(F)(F)F)cc(C(F)(F)F)c1)[C@H](CCN1CCC(c2ccccc2)CC1)c1ccc(F)cc1,6.03,,
O=C(NCc1cc(C(F)(F)F)cc(C(F)(F)F)c1)[C@@H](CCN1CC(c2ccccc2)C1)c1ccc(F)cc1,,18%,
C[C@](CCN1CCC(c2ccccc2)CC1)(CNCc1cc(C(F)(F)F)cc(C(F)(F)F)c1)c1ccc(F)cc1,5.97,,
O=C(NCc1cc(C(F)(F)F)cc(C(F)(F)F)c1)[C@@H](CCN1CC[C@@H]2c3ccccc3CC[C@H]2C1)c1ccc(F)cc1,,6%,
C[C@H]1CN(CC[C@H](CNCc2cc(C(F)(F)F)cc(C(F)(F)F)c2)c2ccc(F)cc2)CC[C@@H]1c1ccccc1,6.85,,
C[C@@H]1CN(CC[C@H](C(=O)NCc2cc(C(F)(F)F)cc(C(F)(F)F)c2)c2ccc(F)cc2)CC[C@]12C=Cc1ccccc12,6.92,,pIC50 [6]: 7.21
O=C(NCc1cc(C(F)(F)F)cc(C(F)(F)F)c1)[C@@H](CCN1CCC(C2CCCCC2)CC1)c1ccc(F)cc1,,20%,
O=C(NCc1cc(C(F)(F)F)cc(C(F)(F)F)c1)[C@@H](CCN1CCCC(c2ccccc2)CC1)c1ccc(F)cc1 (stereo not given in full),,3%,
O=C(NCc1cc(C(F)(F)F)cc(C(F)(F)F)c1)[C@@H](CCN1CCCCC1)c1ccc(F)cc1,5.96,,
CC(CN1CCC(c2ccccc2)CC1)[C@H](CNCc1cc(C(F)(F)F)cc(C(F)(F)F)c1)c1ccc(F)cc1 (stereo not given in full),,0%,
CC1CN(CC[C@H](C(=O)NCc2cc(C(F)(F)F)cc(C(F)(F)F)c2)c2ccc(F)cc2)CCC12C=Cc1ccccc12 (stereo not given in full),7.35,,
O=C(NCc1cc(C(F)(F)F)cc(C(F)(F)F)c1)[C@@H](CCN1CCC(c2ccccc2)C1)c1ccc(F)cc1 (stereo not given in full),,44%,
O=C(NCc1cc(C(F)(F)F)cc(C(F)(F)F)c1)[C@@H](CCCN1CCCCC1)c1ccc(F)cc1,6.00,,
CN(C)CCN[C@H](C(=O)NCc1cc(C(F)(F)F)cc(C(F)(F)F)c1)c1ccc(F)cc1,6.14,,
C[C@H]1CN(CC[C@H](C(=O)NCc2cc(C(F)(F)F)cc(C(F)(F)F)c2)c2ccc(F)cc2)CC[C@@]12C=Cc1ccccc12,7.23,,pIC50 [6]: 7.39; pIC50 [3]: 7.55; inhibition [10]: 26%
CC1CN(CC[C@H](C(=O)NCc2cc(C(F)(F)F)cc(C(F)(F)F)c2)c2ccc(F)cc2)CCN1c1ccccc1 (stereo not given in full),6.11,,
O=C(NCc1cc(C(F)(F)F)cc(C(F)(F)F)c1)[C@@H](CCN1CCC2(CCc3ccccc32)CC1)c1ccc(F)cc1,6.49,,
C[C@@H]1CN(CC[C@H](CNCc2cc(C(F)(F)F)cc(C(F)(F)F)c2)c2ccc(F)cc2)CC[C@@H]1c1ccccc1,6.15,,
O=C(NCc1cc(C(F)(F)F)cc(C(F)(F)F)c1)[C@@H](CCN1CCN(c2ccccc2)CC1)c1ccc(F)cc1,,11%,
